Measurements reported in US20050009840A1 (SUGEN, INC., priority 2003, published 2005).

Biological target: T1, HGFR (Homo sapiens, UniProt P08581)
T1 construct: purchased Upstate 14-526
Test: HGFR continuous-coupled spectrophotometric assay
Format: biochemical
Settings: Table 3, column 'Ki (μM) or I (%)': cells without % sign; read-out: Ki

T1 sequence (P08581 974-1390 limits assumed): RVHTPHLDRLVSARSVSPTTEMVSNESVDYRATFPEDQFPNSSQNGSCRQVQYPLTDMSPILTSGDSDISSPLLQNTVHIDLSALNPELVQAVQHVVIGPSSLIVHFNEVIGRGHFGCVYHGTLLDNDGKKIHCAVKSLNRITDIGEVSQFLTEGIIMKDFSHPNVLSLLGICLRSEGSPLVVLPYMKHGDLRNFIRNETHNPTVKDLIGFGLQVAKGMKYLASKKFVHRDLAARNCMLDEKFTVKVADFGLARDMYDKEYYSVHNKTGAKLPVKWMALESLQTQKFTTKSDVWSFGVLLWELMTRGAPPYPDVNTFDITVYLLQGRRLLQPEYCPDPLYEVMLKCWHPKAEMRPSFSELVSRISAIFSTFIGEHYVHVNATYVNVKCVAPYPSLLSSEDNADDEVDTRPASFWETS

`CC(Oc1cc(-c2ccc(C(=O)N3C[C@@H](O)[C@@H](O)C3)cc2)cnc1N)c1c(Cl)ccc(F)c1Cl` (stereo partly drawn) [Example I-607, (4-{6-Amino-5-[1-(2,6-dichloro-3-fluoro-phenyl)-ethoxy]-pyridin-3-yl}-phenyl)-((3R,4S)-3,4-dihydroxy-pyrrolidin-1-yl)-methanone] and `CC(Oc1cc(-c2ccc(C(=O)N3CC4C(N)C4C3)cc2)cnc1N)c1c(Cl)ccc(F)c1Cl` (stereo not drawn) [Example I-635, (6-Amino-3-aza-bicyclo[3.1.0]hex-3-yl)-(4-{6-amino-5-[1-(2,6-dichloro-3-fluoro-phenyl)-ethoxy]-pyridin-3-yl}-phenyl)-methanone] are within 1.5-fold of each other in Ki: 0.058 µM for the first, 0.0554 µM for the second.

Going from `CC(Oc1cc(-c2ccc(C(=O)NC3CNC3)cc2)cnc1N)c1c(Cl)ccc(F)c1Cl` (stereo not drawn) [Example I-609, 4-{6-Amino-5-[1-(2,6-dichloro-3-fluoro-phenyl)-ethoxy]-pyridin-3-yl}-N-azetidin-3-yl-benzamide] to `CC(Oc1cc(-c2ccc(N(C)C)cc2)cnc1N)c1c(Cl)ccc(F)c1Cl` (stereo not drawn) [Example I-645, 3-[1-(2,6-Dichloro-3-fluoro-phenyl)-ethoxy]-5-(4-dimethylamino-phenyl)-pyridin-2-ylamine], the Ki rises from 0.045 µM to 0.157 µM (3.5-fold). The first binds more tightly here.

Compared with `CC(Oc1cc(-c2ccc(S(=O)(=O)N(C)C)cc2)cnc1N)c1c(Cl)ccc(F)c1Cl` (stereo not drawn) [Example I-610, 4-{6-Amino-5-[1-(2,6-dichloro-3-fluoro-phenyl)-ethoxy]-pyridin-3-yl}-N,N-dimethyl-benzenesulfonamide], `CC(Oc1cc(-c2ccc(O)nc2)cnc1N)c1c(Cl)ccc(F)c1Cl` (stereo not drawn) [Example I-643, 6′-Amino-5′-[1-(2,6-dichloro-3-fluoro-phenyl)-ethoxy]-1H-[3,3′]-bipyridinyl-6-one] is 1.6-fold lower in Ki: 0.069 µM for the first, 0.0432 µM for the second.

First: CCN1CCN(C(=O)c2ccc(-c3cnc(N)c(OC(C)c4c(F)ccc(F)c4Cl)c3)cc2)CC1 (stereo not drawn) [Example I-622, (4-{6-Amino-5-[1-(2-chloro-3,6-difluoro-phenyl)-ethoxy]-pyridin-3-yl}-phenyl)-(4-ethyl-piperazin-1-yl)-methanone]
Second: CC(Oc1cc(-c2ccc(=O)n(CCN3CCCC3)c2)cnc1N)c1c(Cl)ccc(F)c1Cl (stereo not drawn) [Example I-637, 6′-Amino-5′-[1-(2,6-dichloro-3-fluoro-phenyl)-ethoxy]-1-(2-pyrrolidin-1-yl-ethyl)-1H-[3,3′]-bipyridinyl-6-one]
The Ki of the first is 1.8-fold lower: 0.375 µM for the first, 0.692 µM for the second. The first binds more tightly here.

`CC(Oc1cc(-c2ccc(OCCN3CCOCC3)nc2)cnc1N)c1c(Cl)ccc(F)c1Cl` (stereo not drawn) [Example I-636, 5-[1-(2,6-Dichloro-3-fluoro-phenyl)-ethoxy]-6′-(2-morpholin-4-yl-ethoxy)-[3,3′]bipyridinyl-6-ylamine] and `CC(Oc1cc(-c2ccc(OCCN3CCCC3)nc2)cnc1N)c1c(Cl)ccc(F)c1Cl` (stereo not drawn) [Example I-638, 5-[1-(2,6-Dichloro-3-fluoro-phenyl)-ethoxy]-6′-(2-pyrrolidin-1-yl-ethoxy)-[3,3′]bipyridinyl-6-ylamine] are within 1.5-fold of each other in Ki: 0.109 µM for the first, 0.094 µM for the second.

Going from `CC(Oc1cc(-c2ccc(=O)n(CCC3CCCN3C)c2)cnc1N)c1c(Cl)ccc(F)c1Cl` (stereo not drawn) [Example I-639, 6′-Amino-5′-[1-(2,6-dichloro-3-fluoro-phenyl)-ethoxy]-1-[2-(1-methyl-pyrrolidin-2-yl)-ethyl]-1H-[3,3′]bipyridinyl-6-one] to `CC(Oc1cc(-c2ccc3[nH]ccc3c2)cnc1N)c1c(Cl)ccc(F)c1Cl` (stereo not drawn) [Example I-647, 3-[1-(2,6-Dichloro-3-fluoro-phenyl)-ethoxy]-5-(1H-indol-5-yl)-pyridin-2-ylamine], the Ki falls from 0.513 µM to 0.166 µM (3.1-fold).

First: CC(Oc1cc(-c2cncc(Br)c2)cnc1N)c1c(Cl)ccc(F)c1Cl (stereo not drawn) [Example I-644, 5′-Bromo-5-[1-(2,6-dichloro-3-fluoro-phenyl)-ethoxy]-[3,3′]bipyridinyl-6-ylamine]
Second: COc1ncccc1-c1cnc(N)c(OC(C)c2c(Cl)ccc(F)c2Cl)c1 (stereo not drawn) [Example I-646, 5-[1-(2,6-Dichloro-3-fluoro-phenyl)-ethoxy]-2′-methoxy-[3,3′]bipyridinyl-6-ylamine]
The Ki of the first is 2-fold higher: 0.196 µM for the first, 0.099 µM for the second. The second binds more tightly here.

In the case of `CCC(Oc1cc(-c2ccc(C(=O)N3C[C@@H](C)N[C@@H](C)C3)cc2)cnc1N)c1c(Cl)cccc1Cl` (stereo partly drawn) [Example I-648, (4-{6-Amino-5-[1-(2,6-dichloro-phenyl)-propoxy]-pyridin-3-yl}-phenyl)-(3,5-dimethyl-piperazin-1-yl)-methanone], the Ki is reported as 0.553 µM.

Same assay, conditions: at 50 nM; Table 5, library procedure 40; read-out: % inhibition (percent c-MET inhibition)

Going from `CC(Oc1cc(-c2ccc(C(=O)NCCC3CCCN3C)cc2)cnc1N)c1c(Cl)ccc(F)c1Cl` [Example L-1] to `CCN1CCCC1CNC(=O)c1ccc(-c2cnc(N)c(OC(C)c3c(Cl)ccc(F)c3Cl)c2)cc1` [Example L-30], the inhibition at 0.05 µM rises from 58% to 80%.

Compared with `CC(Oc1cc(-c2ccc(C(=O)NCCCN3CCOCC3)cc2)cnc1N)c1c(Cl)ccc(F)c1Cl` [Example L-2], `CC(Oc1cc(-c2ccc(C(=O)NCCCN3CCN(C)CC3)cc2)cnc1N)c1c(Cl)ccc(F)c1Cl` [Example L-3] is higher in inhibition at 0.05 µM: 59% for the first, 63% for the second.

Compared with `CC(Oc1cc(-c2ccc(C(=O)NC3CCN(Cc4ccccc4)CC3)cc2)cnc1N)c1c(Cl)ccc(F)c1Cl` [Example L-4], `CC(Oc1cc(-c2ccc(C(=O)N[C@H]3CCN(Cc4ccccc4)C3)cc2)cnc1N)c1c(Cl)ccc(F)c1Cl` (stereo partly drawn) [Example L-14] is higher in inhibition at 0.05 µM: 47% for the first, 72% for the second.

First: CC(Oc1cc(-c2ccc(C(=O)NCCCO)cc2)cnc1N)c1c(Cl)ccc(F)c1Cl [Example L-5]
Second: CC(Oc1cc(-c2ccc(C(=O)NCCCN(C)C)cc2)cnc1N)c1c(Cl)ccc(F)c1Cl [Example L-16]
The inhibition at 0.05 µM of the first is lower: 68% for the first, 83% for the second.

Going from `CC(Oc1cc(-c2ccc(C(=O)NCCN3CCCCC3)cc2)cnc1N)c1c(Cl)ccc(F)c1Cl` [Example L-6] to `CC(Oc1cc(-c2ccc(C(=O)NCCCN3CCCCC3C)cc2)cnc1N)c1c(Cl)ccc(F)c1Cl` [Example L-8], the inhibition at 0.05 µM rises from 69% to 72%.

Going from `CC(CO)NC(=O)c1ccc(-c2cnc(N)c(OC(C)c3c(Cl)ccc(F)c3Cl)c2)cc1` [Example L-7] to `CC(Oc1cc(-c2ccc(C(=O)NCC(N)=O)cc2)cnc1N)c1c(Cl)ccc(F)c1Cl` [Example L-21], the inhibition at 0.05 µM rises from 66% to 86%.

Compared with `CC(Oc1cc(-c2ccc(C(=O)NCc3cccnc3)cc2)cnc1N)c1c(Cl)ccc(F)c1Cl` [Example L-9], `CC(Oc1cc(-c2ccc(C(=O)NCc3ccncc3)cc2)cnc1N)c1c(Cl)ccc(F)c1Cl` [Example L-27] is higher in inhibition at 0.05 µM: 64% for the first, 74% for the second.

`CC(Oc1cc(-c2ccc(C(=O)NCc3ccccn3)cc2)cnc1N)c1c(Cl)ccc(F)c1Cl` [Example L-10] and `CC(Oc1cc(-c2ccc(C(=O)NCCc3ccccn3)cc2)cnc1N)c1c(Cl)ccc(F)c1Cl` [Example L-11] are the same in inhibition at 0.05 µM: 67% for the first, 67% for the second.

Compared with `CC(Oc1cc(-c2ccc(C(=O)NCCOCCO)cc2)cnc1N)c1c(Cl)ccc(F)c1Cl` [Example L-13], `CC(=O)NCCNC(=O)c1ccc(-c2cnc(N)c(OC(C)c3c(Cl)ccc(F)c3Cl)c2)cc1` [Example L-24] is lower in inhibition at 0.05 µM: 76% for the first, 71% for the second.

First: CC(Oc1cc(-c2ccc(C(=O)N[C@@H]3CCN(Cc4ccccc4)C3)cc2)cnc1N)c1c(Cl)ccc(F)c1Cl (stereo partly drawn) [Example L-15]
Second: CC(Oc1cc(-c2ccc(C(=O)NC3CCN(Cc4ccccc4)C3)cc2)cnc1N)c1c(Cl)ccc(F)c1Cl [Example L-17]
The inhibition at 0.05 µM of the first is lower: 67% for the first, 76% for the second.

First: CC(Oc1cc(-c2ccc(C(=O)NCCc3ccccc3)cc2)cnc1N)c1c(Cl)ccc(F)c1Cl [Example L-18]
Second: CC(Oc1cc(-c2ccc(C(=O)NCCc3ccccc3F)cc2)cnc1N)c1c(Cl)ccc(F)c1Cl [Example L-35]
The inhibition at 0.05 µM of the first is higher: 66% for the first, 55% for the second.

Compared with `C[C@H](Oc1cc(-c2ccc(C(=O)N[C@H](CO)c3ccccc3)cc2)cnc1N)c1c(Cl)ccc(F)c1Cl` [Example L-20], `CC(Oc1cc(-c2ccc(C(=O)N3CCC(O)(c4ccccc4)CC3)cc2)cnc1N)c1c(Cl)ccc(F)c1Cl` [Example L-28] is lower in inhibition at 0.05 µM: 69% for the first, 64% for the second.

First: COc1cc(CNC(=O)c2ccc(-c3cnc(N)c(OC(C)c4c(Cl)ccc(F)c4Cl)c3)cc2)ccc1O [Example L-22]
Second: COc1ccc(CNC(=O)c2ccc(-c3cnc(N)c(OC(C)c4c(Cl)ccc(F)c4Cl)c3)cc2)cc1OC [Example L-34]
The inhibition at 0.05 µM of the first is higher: 64% for the first, 62% for the second.

Going from `CC(Oc1cc(-c2ccc(C(=O)NCC(C)(C)CN(C)C)cc2)cnc1N)c1c(Cl)ccc(F)c1Cl` [Example L-25] to `CCN(CC)CCN(C)C(=O)c1ccc(-c2cnc(N)c(OC(C)c3c(Cl)ccc(F)c3Cl)c2)cc1` [Example L-43], the inhibition at 0.05 µM rises from 77% to 85%.

First: CC(Oc1cc(-c2ccc(C(=O)N3CCC(N(C)C)CC3)cc2)cnc1N)c1c(Cl)ccc(F)c1Cl [Example L-26]
Second: CC(Oc1cc(-c2ccc(C(=O)N3CCC(O)CC3)cc2)cnc1N)c1c(Cl)ccc(F)c1Cl [Example L-29]
The inhibition at 0.05 µM of the first is higher: 92% for the first, 86% for the second.

First: CC(Oc1cc(-c2ccc(C(=O)N(C)C3CCN(C)CC3)cc2)cnc1N)c1c(Cl)ccc(F)c1Cl [Example L-32]
Second: CC(Oc1cc(-c2ccc(C(=O)N3CCCN(C)CC3)cc2)cnc1N)c1c(Cl)ccc(F)c1Cl [Example L-39]
The inhibition at 0.05 µM of the first is higher: 92% for the first, 77% for the second.

Going from `CC(Oc1cc(-c2ccc(C(=O)N3CCN(c4ccccn4)CC3)cc2)cnc1N)c1c(Cl)ccc(F)c1Cl` [Example L-33] to `CC(Oc1cc(-c2ccc(C(=O)N3CCN(Cc4ccccc4)CC3)cc2)cnc1N)c1c(Cl)ccc(F)c1Cl` [Example L-36], the inhibition at 0.05 µM falls from 63% to 62%.

Going from `CC(Oc1cc(-c2ccc(C(=O)N(C)CCc3ccccn3)cc2)cnc1N)c1c(Cl)ccc(F)c1Cl` [Example L-37] to `CCN(Cc1ccncc1)C(=O)c1ccc(-c2cnc(N)c(OC(C)c3c(Cl)ccc(F)c3Cl)c2)cc1` [Example L-41], the inhibition at 0.05 µM rises from 75% to 84%.

Going from `CC(C)NC(=O)CN1CCN(C(=O)c2ccc(-c3cnc(N)c(OC(C)c4c(Cl)ccc(F)c4Cl)c3)cc2)CC1` [Example L-38] to `CCN(CC)C(=O)C1CCCN(C(=O)c2ccc(-c3cnc(N)c(OC(C)c4c(Cl)ccc(F)c4Cl)c3)cc2)C1` [Example L-44], the inhibition at 0.05 µM falls from 86% to 55%.

For `CC(Oc1cc(-c2ccc(C(=O)N3CCC(Cc4ccccc4)CC3)cc2)cnc1N)c1c(Cl)ccc(F)c1Cl` [Example L-40], the inhibition at 0.05 µM was 55%.
